Legend:
Experiment in all cases: Large panel kinase profiling
Type in all cases: biochemical
Conditions in all cases: 1 μM test article, 1 mM ATP
PRKD1 = target: T1, PRKD1 (Homo sapiens, UniProt Q15139)
T1 sequence (Q15139 1-912): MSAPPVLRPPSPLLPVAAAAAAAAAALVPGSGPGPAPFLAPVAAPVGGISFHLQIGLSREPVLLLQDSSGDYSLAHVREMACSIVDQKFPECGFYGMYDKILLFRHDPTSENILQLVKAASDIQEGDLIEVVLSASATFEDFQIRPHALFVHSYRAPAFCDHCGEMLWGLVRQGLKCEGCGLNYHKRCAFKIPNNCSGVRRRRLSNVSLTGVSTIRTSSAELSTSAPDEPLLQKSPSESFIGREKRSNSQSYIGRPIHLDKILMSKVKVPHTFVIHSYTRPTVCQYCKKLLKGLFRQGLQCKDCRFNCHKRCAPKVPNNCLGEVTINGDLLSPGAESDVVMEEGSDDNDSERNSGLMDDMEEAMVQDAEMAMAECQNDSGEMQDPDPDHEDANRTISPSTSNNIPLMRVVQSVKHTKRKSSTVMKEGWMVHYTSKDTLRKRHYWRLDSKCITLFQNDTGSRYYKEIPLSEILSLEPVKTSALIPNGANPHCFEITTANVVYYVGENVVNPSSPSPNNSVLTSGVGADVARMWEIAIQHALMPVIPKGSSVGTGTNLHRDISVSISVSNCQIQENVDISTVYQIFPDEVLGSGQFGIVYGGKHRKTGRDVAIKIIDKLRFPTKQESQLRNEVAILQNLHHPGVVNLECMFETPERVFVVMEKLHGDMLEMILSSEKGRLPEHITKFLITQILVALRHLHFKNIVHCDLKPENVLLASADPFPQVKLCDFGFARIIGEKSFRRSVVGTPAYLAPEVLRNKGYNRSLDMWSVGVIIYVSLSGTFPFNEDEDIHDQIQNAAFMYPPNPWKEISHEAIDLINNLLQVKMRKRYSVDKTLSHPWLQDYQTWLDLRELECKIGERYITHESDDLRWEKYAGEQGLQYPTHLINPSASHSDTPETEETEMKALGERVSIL
Outline: (§1)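 At 30° C., kinases turned over a CSox-Sensor peptide substrate with 1 mM ATP while 1 μM test article was present. Progress was followed by kinetic fluorescence readings.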

PRKAA1/AMPK111 = PRKAA1/AMPK111 (Homo sapiens, UniProt Q13131)
Chain of PRKAA1/AMPK111 (Q13131 whole entry, species assumed): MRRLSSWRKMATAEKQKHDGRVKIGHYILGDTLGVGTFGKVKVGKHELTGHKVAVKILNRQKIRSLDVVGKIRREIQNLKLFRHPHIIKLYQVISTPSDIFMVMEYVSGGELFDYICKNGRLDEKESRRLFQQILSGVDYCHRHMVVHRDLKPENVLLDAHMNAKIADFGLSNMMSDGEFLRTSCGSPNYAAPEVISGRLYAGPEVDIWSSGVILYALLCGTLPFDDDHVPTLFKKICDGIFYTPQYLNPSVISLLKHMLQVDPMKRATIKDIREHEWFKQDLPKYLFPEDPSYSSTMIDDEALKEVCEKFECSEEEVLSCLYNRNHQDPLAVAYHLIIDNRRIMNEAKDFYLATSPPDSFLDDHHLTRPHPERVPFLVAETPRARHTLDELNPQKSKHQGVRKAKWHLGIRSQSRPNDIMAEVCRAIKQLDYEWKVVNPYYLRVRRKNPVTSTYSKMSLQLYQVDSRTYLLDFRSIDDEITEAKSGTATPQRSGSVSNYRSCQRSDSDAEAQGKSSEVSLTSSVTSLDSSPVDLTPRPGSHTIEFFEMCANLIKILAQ
Chain of PRKAA1/AMPK111 (Q9Y478 whole entry partner, species assumed): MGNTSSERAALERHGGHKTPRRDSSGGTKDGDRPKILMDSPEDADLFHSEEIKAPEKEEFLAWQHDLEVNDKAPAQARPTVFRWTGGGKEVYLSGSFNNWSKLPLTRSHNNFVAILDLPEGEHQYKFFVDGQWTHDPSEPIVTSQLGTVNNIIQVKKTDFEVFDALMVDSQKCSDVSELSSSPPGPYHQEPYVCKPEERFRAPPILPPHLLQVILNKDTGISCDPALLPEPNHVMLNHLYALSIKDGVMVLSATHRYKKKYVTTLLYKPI
Chain of PRKAA1/AMPK111 (P54619 whole entry partner, species assumed): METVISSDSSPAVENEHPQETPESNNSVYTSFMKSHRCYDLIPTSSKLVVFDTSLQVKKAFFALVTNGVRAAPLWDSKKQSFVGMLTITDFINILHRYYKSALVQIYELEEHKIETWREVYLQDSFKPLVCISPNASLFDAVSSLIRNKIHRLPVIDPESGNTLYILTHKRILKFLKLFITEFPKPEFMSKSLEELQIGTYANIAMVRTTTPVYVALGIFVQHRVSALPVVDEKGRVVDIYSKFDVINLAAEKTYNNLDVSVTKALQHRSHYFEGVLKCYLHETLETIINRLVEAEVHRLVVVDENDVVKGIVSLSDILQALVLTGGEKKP
Outline: as §1

NEK3 = target: T2, NEK3 (Homo sapiens, UniProt P51956)
T2 construct: AssayQuant Technologies, Inc. (assay service)
T2 sequence (P51956 1-506): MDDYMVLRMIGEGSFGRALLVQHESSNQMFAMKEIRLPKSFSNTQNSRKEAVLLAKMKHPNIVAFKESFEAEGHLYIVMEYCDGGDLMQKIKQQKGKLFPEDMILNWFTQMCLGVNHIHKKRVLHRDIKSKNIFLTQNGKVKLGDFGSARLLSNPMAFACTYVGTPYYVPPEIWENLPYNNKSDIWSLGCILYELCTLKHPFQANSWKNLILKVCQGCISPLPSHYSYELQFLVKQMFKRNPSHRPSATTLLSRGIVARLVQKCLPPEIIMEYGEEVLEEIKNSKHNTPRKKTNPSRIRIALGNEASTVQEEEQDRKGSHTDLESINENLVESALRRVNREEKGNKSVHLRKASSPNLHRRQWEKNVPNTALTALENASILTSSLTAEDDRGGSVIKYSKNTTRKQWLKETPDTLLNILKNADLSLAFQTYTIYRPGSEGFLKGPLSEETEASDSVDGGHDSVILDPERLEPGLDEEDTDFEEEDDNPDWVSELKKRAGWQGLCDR
Outline: as §1

MAPK15/ERK7 = target: T3, MAPK15/ERK7 (Homo sapiens, UniProt Q8TD08)
T3 construct: AssayQuant Technologies, Inc. (service provider)
T3 sequence (Q8TD08 1-544): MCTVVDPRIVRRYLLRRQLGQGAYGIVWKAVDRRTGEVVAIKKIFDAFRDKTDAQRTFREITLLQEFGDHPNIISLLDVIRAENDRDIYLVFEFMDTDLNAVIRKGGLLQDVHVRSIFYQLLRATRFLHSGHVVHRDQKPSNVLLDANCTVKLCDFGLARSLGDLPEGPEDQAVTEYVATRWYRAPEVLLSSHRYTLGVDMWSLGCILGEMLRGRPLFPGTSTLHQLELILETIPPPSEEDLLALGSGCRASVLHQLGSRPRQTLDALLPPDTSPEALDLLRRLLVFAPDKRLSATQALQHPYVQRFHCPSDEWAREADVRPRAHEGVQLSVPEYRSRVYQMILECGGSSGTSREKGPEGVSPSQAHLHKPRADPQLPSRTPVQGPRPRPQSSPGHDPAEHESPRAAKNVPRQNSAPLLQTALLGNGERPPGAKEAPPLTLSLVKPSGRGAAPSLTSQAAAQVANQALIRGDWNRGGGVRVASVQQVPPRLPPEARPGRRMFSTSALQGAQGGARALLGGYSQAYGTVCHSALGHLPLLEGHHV
Outline: as §1

MAPKAPK5/MK5 = target: T4, MAPKAPK5/MK5 (Homo sapiens, UniProt Q8IW41)
T4 construct: AssayQuant Technologies, Inc. (service provider)
T4 sequence (Q8IW41 1-473): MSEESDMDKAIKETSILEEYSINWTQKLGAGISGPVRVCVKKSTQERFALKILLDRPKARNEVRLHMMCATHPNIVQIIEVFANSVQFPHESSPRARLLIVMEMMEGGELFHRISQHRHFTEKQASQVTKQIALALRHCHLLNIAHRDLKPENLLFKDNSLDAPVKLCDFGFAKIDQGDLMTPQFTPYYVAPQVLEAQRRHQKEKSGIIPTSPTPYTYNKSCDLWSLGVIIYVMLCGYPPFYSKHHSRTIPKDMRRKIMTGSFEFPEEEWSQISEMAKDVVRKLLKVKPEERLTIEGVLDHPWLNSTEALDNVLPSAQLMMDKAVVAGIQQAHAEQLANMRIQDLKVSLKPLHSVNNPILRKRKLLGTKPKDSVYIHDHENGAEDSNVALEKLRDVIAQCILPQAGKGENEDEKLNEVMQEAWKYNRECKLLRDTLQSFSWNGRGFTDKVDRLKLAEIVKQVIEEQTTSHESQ
Outline: as §1

SMILES | inhibition at 1 µM (PRKD1) [%] | inhibition at 1 µM (PRKAA1/AMPK111) [%] | inhibition at 1 µM (NEK3) [%] | inhibition at 1 µM (MAPK15/ERK7) [%] | inhibition at 1 µM (MAPKAPK5/MK5) [%]
C=CC(=O)N1CCCC(c2c(F)cc(C(N)=O)c3[nH]c4c(c23)CCCCC4)C1 (single isomer, unassigned) [Compound 5-6] | -6.6 | -13.5 | -21.2 | -3.4 | 3.7
C=CC(=O)N1CCC[C@@H](c2c(F)cc(C(N)=O)c3[nH]c4c(c23)CC2(CC4)CC2)C1 [Compound 6-2, (S)-5-(1-acryloylpiperidin-3-yl)-6-fluoro-1,2,4,9-tetrahydrospiro[carbazole-3,1′-cyclopropane]-8-carboxamide] | -16 | 13.2 | -8.1 | 15.3 | 8.6
C=CC(=O)N1CCC[C@@H](c2c(F)cc(C(N)=O)c3[nH]c4c(c23)CCC4)C1 [Compound 10-2, (S)-8-(1-acryloylpiperidin-3-yl)-7-fluoro-1,2,3,4-tetrahydrocyclo-penta[b]indole-5-carboxamide] | -24.2 | 2.2 | -5 | -2 | -12.6

— patent publication US20220009920A1 (GB005, Inc., priority 2020, published 2022)
